Reference: US20020137929A1, “1 - (3-heterocyclylphenyl) isothiourea, -isourea, -guanidine and -amidine herbicidal agents” (Intellectual Property Department, BASF Aktiengesellschaft, priority 1998, published 2002)

How the values were obtained:
GALAP (Galium) = assay: Preemergence herbicidal evaluation; assay type: in vivo, Galium aparine; settings: rated 4-5 weeks after treatment
In short: (§1)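 Seeds were mixed with potting soil and planted on about one inch of soil, then sprayed with test compound in aqueous acetone at about 0.0156 to 0.500 kg per hectare. Plants grew under standard greenhouse care and were visually rated 0-9 against untreated controls 4-5 weeks post-treatment.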

ZEAMX (Corn, Field) = assay: Postemergence herbicidal evaluation; assay type: in vivo, Zea mays; settings: postemergence
In short: (§2)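 Seedlings grown about two weeks were sprayed at 40 psi with compound dispersed in 50/50 acetone/water plus 0.5% TWEEN 20, at about 0.0156 to 0.500 kg/ha. Plants were kept in the greenhouse and scored 4–5 weeks later on a 0–9 visual scale against untreated controls.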

CYPIR (Rice Flatsedge) = assay: Preemergence weed control under flooded paddy conditions; assay type: in vivo, Cyperus iria; settings: rated 3-4 weeks after treatment
In short: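 Flooded-pot preemergence screen with silt loam and seeds in the upper 0.5 cm. Dose about 0.0313 to 0.500 kg/ha, delivered into flood water; visual 0-9 score after 3 to 4 weeks.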

[1] = test system: GLXMAW (Soybean, Williams); assay: Postemergence herbicidal evaluation; assay type: in vivo, Glycine max, (L.) Merr. cv Williams; settings: postemergence
In short: as §2

AMBEL (Ragweed, Common) = assay: Preemergence herbicidal evaluation; assay type: in vivo, Ambrosia artemisifolia; settings: rated 4-5 weeks after treatment
In short: as §1

SETVI (Foxtail, Green) [2] = assay: Postemergence herbicidal evaluation; assay type: in vivo, Setaria viridis; settings: postemergence
In short: as §2

[3] = test system: TRZAWR (Wheat, Winter, cv Riband); assay: Postemergence herbicidal evaluation; assay type: in vivo, Triticum aestivum; settings: postemergence
In short: as §2

ORYSAT (Rice, Tebonnet) = assay: Postemergence herbicidal evaluation; assay type: in vivo, Oryza sativa, (L.) Tebonnet; settings: postemergence
In short: as §2

[4] = test system: CHEAL (Lambsquarters, Common); assay: Postemergence herbicidal evaluation; assay type: in vivo, Chenopodium album; settings: postemergence
In short: as §2

ABUTH (Velvetleaf) = assay: Postemergence herbicidal evaluation; assay type: in vivo, Abutilon theophrasti; settings: postemergence
In short: as §2

SETVI (Foxtail, Green) [5] = assay: Preemergence herbicidal evaluation; assay type: in vivo, Setaria viridis; settings: rated 4-5 weeks after treatment
In short: as §1

[6] = rate 0.0313 kg/ha, rating scale 0-9
[7] = rate 0.0625 kg/ha, rating scale 0-9
[8] = rate 0.1250 kg/ha, rating scale 0-9
[9] = rate 0.2500 kg/ha, rating scale 0-9
[10] = rate 0.0156 kg/ha, rating scale 0-9

Cn1c(C(F)(F)F)cc(=O)n(-c2cc(N=C3SCC(=O)N3Cc3ccccn3)c(Cl)cc2F)c1=O [Compound 131]
2.5: Herbicidal rating ORYSAT (ORYSAT (Rice, Tebonnet); rate 0.0313 kg/ha)
4.5: Herbicidal rating ZEAMX (ZEAMX (Corn, Field); rate 0.0156 kg/ha) | Herbicidal rating ZEAMX (ZEAMX (Corn, Field); rate 0.0313 kg/ha) | Herbicidal rating ZEAMX (ZEAMX (Corn, Field); rate 0.0625 kg/ha) | Herbicidal rating GLXMAW ([1]; rate 0.0156 kg/ha)
0.0: Preemergence herbicidal rating GALAP (GALAP (Galium); [6]) | herbicidal effect rating, CYPIR (CYPIR (Rice Flatsedge); 0.1250 kg/ha) | Preemergence herbicidal rating AMBEL (AMBEL (Ragweed, Common); [6]) | Preemergence herbicidal rating AMBEL (AMBEL (Ragweed, Common); [7]) | Preemergence herbicidal rating AMBEL (AMBEL (Ragweed, Common); [8]) | Preemergence herbicidal rating AMBEL (AMBEL (Ragweed, Common); [9]) | Preemergence herbicidal rating SETVI (SETVI (Foxtail, Green) [5]; [6]) | Preemergence herbicidal rating SETVI (SETVI (Foxtail, Green) [5]; [7]) | Preemergence herbicidal rating SETVI (SETVI (Foxtail, Green) [5]; [8])
2.0: Preemergence herbicidal rating GALAP (GALAP (Galium); [8]) | Herbicidal rating ORYSAT (ORYSAT (Rice, Tebonnet); rate 0.0156 kg/ha)
3.0: Preemergence herbicidal rating GALAP (GALAP (Galium); [7]) | Herbicidal rating SETVI (SETVI (Foxtail, Green) [2]; rate 0.0156 kg/ha) | Herbicidal rating TRZAWR ([3]; rate 0.0156 kg/ha) | Herbicidal rating TRZAWR ([3]; rate 0.0313 kg/ha) | Herbicidal rating TRZAWR ([3]; rate 0.0625 kg/ha) | Herbicidal rating ORYSAT (ORYSAT (Rice, Tebonnet); rate 0.0625 kg/ha) | Herbicidal rating CHEAL ([4]; rate 0.0156 kg/ha) | Preemergence herbicidal rating SETVI (SETVI (Foxtail, Green) [5]; [9])
4.0: herbicidal effect rating, CYPIR (CYPIR (Rice Flatsedge); 0.2500 kg/ha) | Herbicidal rating SETVI (SETVI (Foxtail, Green) [2]; rate 0.0313 kg/ha)
5.0: Herbicidal rating GLXMAW ([1]; rate 0.0313 kg/ha) | Herbicidal rating SETVI (SETVI (Foxtail, Green) [2]; rate 0.0625 kg/ha) | Herbicidal rating CHEAL ([4]; rate 0.0313 kg/ha)
9.0: Preemergence herbicidal rating GALAP (GALAP (Galium); [9]) | Herbicidal rating CHEAL ([4]; rate 0.0625 kg/ha) | Herbicidal rating ABUTH (ABUTH (Velvetleaf); rate 0.0313 kg/ha) | Herbicidal rating ABUTH (ABUTH (Velvetleaf); rate 0.0625 kg/ha)
7.0: Herbicidal rating ABUTH (ABUTH (Velvetleaf); rate 0.0156 kg/ha)
5.5: Herbicidal rating GLXMAW ([1]; rate 0.0625 kg/ha)

Cn1c(C(F)(F)F)cc(=O)n(-c2cc(N=C3SCC(=O)N3Cc3ccc(Cl)c(Cl)c3)c(Cl)cc2F)c1=O [Compound 144, 3-{4-Chloro-5-{[3-(3,4-dichlorobenzyl)-4-oxo-2-thiazolidinylidene]amino}-2-fluorophenyl}-1-methyl-6-(trifluoromethyl)-2,4(1H,3H)-pyrimidinedione]
6.5: Herbicidal rating GLXMAW ([1]; rate 0.0625 kg/ha)
3.0: herbicidal effect rating, CYPIR (CYPIR (Rice Flatsedge); 0.0313 kg/ha) | herbicidal effect rating, CYPIR (CYPIR (Rice Flatsedge); 0.0625 kg/ha) | Herbicidal rating SETVI (SETVI (Foxtail, Green) [2]; rate 0.0156 kg/ha) | Herbicidal rating SETVI (SETVI (Foxtail, Green) [2]; rate 0.0313 kg/ha) | Herbicidal rating ORYSAT (ORYSAT (Rice, Tebonnet); rate 0.0625 kg/ha)
5.5: Herbicidal rating GLXMAW ([1]; rate 0.0313 kg/ha)
2.5: Herbicidal rating ORYSAT (ORYSAT (Rice, Tebonnet); rate 0.0156 kg/ha) | Herbicidal rating ORYSAT (ORYSAT (Rice, Tebonnet); rate 0.0313 kg/ha)
3.5: Herbicidal rating TRZAWR ([3]; rate 0.0156 kg/ha) | Herbicidal rating TRZAWR ([3]; rate 0.0313 kg/ha)
6.0: Herbicidal rating SETVI (SETVI (Foxtail, Green) [2]; rate 0.0625 kg/ha)
1.0: Preemergence herbicidal rating GALAP (GALAP (Galium); [10]) | Preemergence herbicidal rating GALAP (GALAP (Galium); [6]) | Preemergence herbicidal rating GALAP (GALAP (Galium); [7])
5.0: Herbicidal rating GLXMAW ([1]; rate 0.0156 kg/ha)
4.5: Herbicidal rating ZEAMX (ZEAMX (Corn, Field); rate 0.0625 kg/ha)
0.0: Preemergence herbicidal rating AMBEL (AMBEL (Ragweed, Common); [10]) | Preemergence herbicidal rating AMBEL (AMBEL (Ragweed, Common); [6]) | Preemergence herbicidal rating AMBEL (AMBEL (Ragweed, Common); [7]) | Preemergence herbicidal rating SETVI (SETVI (Foxtail, Green) [5]; [10]) | Preemergence herbicidal rating SETVI (SETVI (Foxtail, Green) [5]; [6])
7.0: Preemergence herbicidal rating AMBEL (AMBEL (Ragweed, Common); [9]) | Herbicidal rating CHEAL ([4]; rate 0.0156 kg/ha)
4.0: Herbicidal rating ZEAMX (ZEAMX (Corn, Field); rate 0.0156 kg/ha) | Herbicidal rating ZEAMX (ZEAMX (Corn, Field); rate 0.0313 kg/ha) | Preemergence herbicidal rating AMBEL (AMBEL (Ragweed, Common); [8]) | Herbicidal rating TRZAWR ([3]; rate 0.0625 kg/ha)
9.0: herbicidal effect rating, CYPIR (CYPIR (Rice Flatsedge); 0.1250 kg/ha) | herbicidal effect rating, CYPIR (CYPIR (Rice Flatsedge); 0.2500 kg/ha) | Herbicidal rating CHEAL ([4]; rate 0.0313 kg/ha) | Herbicidal rating CHEAL ([4]; rate 0.0625 kg/ha) | Herbicidal rating ABUTH (ABUTH (Velvetleaf); rate 0.0156 kg/ha) | Herbicidal rating ABUTH (ABUTH (Velvetleaf); rate 0.0313 kg/ha) | Herbicidal rating ABUTH (ABUTH (Velvetleaf); rate 0.0625 kg/ha) | Preemergence herbicidal rating SETVI (SETVI (Foxtail, Green) [5]; [8]) | Preemergence herbicidal rating SETVI (SETVI (Foxtail, Green) [5]; [9])
2.0: Preemergence herbicidal rating GALAP (GALAP (Galium); [8]) | Preemergence herbicidal rating GALAP (GALAP (Galium); [9]) | Preemergence herbicidal rating SETVI (SETVI (Foxtail, Green) [5]; [7])

COC(=O)COC(=O)CN1C(=O)CSC1=Nc1cc(-n2c(=O)cc(C(F)(F)F)n(C)c2=O)c(F)cc1Cl [Compound 108, 2-{{2-Chloro-5-[3,6-dihydro-3-methyl-2,6-dioxo-4-(trifluoromethyl)-1(2H)-pyrimidinyl]-4-fluorophenyl}imino}-4-oxo-3-thiazolidineacetic acid, ester with methyl glycolate]
2.0: Preemergence herbicidal rating GALAP (GALAP (Galium); rate 0.0313 kg/ha)
3.0: Herbicidal rating TRZAWR ([3]; rate 0.0158 kg/ha) | Herbicidal rating ORYSAT (ORYSAT (Rice, Tebonnet); rate 0.0158 kg/ha) | Herbicidal rating ORYSAT (ORYSAT (Rice, Tebonnet); rate 0.0315 kg/ha)
4.5: Herbicidal rating TRZAWR ([3]; rate 0.0630 kg/ha)
5.0: Herbicidal rating ZEAMX (ZEAMX (Corn, Field); rate 0.0158 kg/ha) | Herbicidal rating GLXMAW ([1]; rate 0.0158 kg/ha)
4.0: CYPIR herbicidal effect rating (CYPIR (Rice Flatsedge); 0.0313 kg/ha) | Herbicidal rating SETVI (SETVI (Foxtail, Green) [2]; rate 0.0158 kg/ha) | Herbicidal rating CHEAL ([4]; rate 0.0158 kg/ha)
6.5: Herbicidal rating ZEAMX (ZEAMX (Corn, Field); rate 0.0630 kg/ha)
7.0: Preemergence herbicidal rating GALAP (GALAP (Galium); rate 0.1250 kg/ha) | CYPIR herbicidal effect rating (CYPIR (Rice Flatsedge); 0.1250 kg/ha) | CYPIR herbicidal effect rating (CYPIR (Rice Flatsedge); 0.2500 kg/ha) | Herbicidal rating SETVI (SETVI (Foxtail, Green) [2]; rate 0.0630 kg/ha) | Herbicidal rating CHEAL ([4]; rate 0.0315 kg/ha) | Preemergence herbicidal rating SETVI (SETVI (Foxtail, Green) [5]; rate 0.1250 kg/ha)
9.0: Preemergence herbicidal rating GALAP (GALAP (Galium); rate 0.2500 kg/ha) | Herbicidal rating CHEAL ([4]; rate 0.0630 kg/ha) | Herbicidal rating ABUTH (ABUTH (Velvetleaf); rate 0.0158 kg/ha) | Herbicidal rating ABUTH (ABUTH (Velvetleaf); rate 0.0315 kg/ha) | Herbicidal rating ABUTH (ABUTH (Velvetleaf); rate 0.0630 kg/ha) | Preemergence herbicidal rating SETVI (SETVI (Foxtail, Green) [5]; rate 0.2500 kg/ha)
5.5: Herbicidal rating GLXMAW ([1]; rate 0.0315 kg/ha)
1.0: Preemergence herbicidal rating GALAP (GALAP (Galium); rate 0.0156 kg/ha) | Preemergence herbicidal rating AMBEL (AMBEL (Ragweed, Common); rate 0.2500 kg/ha) | Preemergence herbicidal rating SETVI (SETVI (Foxtail, Green) [5]; rate 0.0625 kg/ha)
6.0: Preemergence herbicidal rating GALAP (GALAP (Galium); rate 0.0625 kg/ha) | Herbicidal rating ZEAMX (ZEAMX (Corn, Field); rate 0.0315 kg/ha) | CYPIR herbicidal effect rating (CYPIR (Rice Flatsedge); 0.0625 kg/ha) | Herbicidal rating GLXMAW ([1]; rate 0.0630 kg/ha) | Herbicidal rating SETVI (SETVI (Foxtail, Green) [2]; rate 0.0315 kg/ha)
0.0: Preemergence herbicidal rating AMBEL (AMBEL (Ragweed, Common); rate 0.0156 kg/ha) | Preemergence herbicidal rating AMBEL (AMBEL (Ragweed, Common); rate 0.0313 kg/ha) | Preemergence herbicidal rating AMBEL (AMBEL (Ragweed, Common); rate 0.0625 kg/ha) | Preemergence herbicidal rating AMBEL (AMBEL (Ragweed, Common); rate 0.1250 kg/ha) | Preemergence herbicidal rating SETVI (SETVI (Foxtail, Green) [5]; rate 0.0156 kg/ha) | Preemergence herbicidal rating SETVI (SETVI (Foxtail, Green) [5]; rate 0.0313 kg/ha)
3.5: Herbicidal rating TRZAWR ([3]; rate 0.0315 kg/ha) | Herbicidal rating ORYSAT (ORYSAT (Rice, Tebonnet); rate 0.0630 kg/ha)
